The test system of series [1] is influenza A virus, strain A/jifang/90-15. In words: microbe, parasite or virus in culture. The series is classed as cell-based. Conditions: for IC50: Influenza A virus, Influenza strain A/jifang/90-15, MDCK cells, CPE, Reed-Muench, read-out: IC50; for SI: Influenza strain A/jifang/90-15.
The test system of series [2] is Madin-Darby canine kidney (MDCK) cells.
The subject of a further series is 2.2.15 cells. Put plainly: Cytotoxicity (TC50) in 2.2.15 cells. The series is classed as cell-based.
For a further series, the system named is HBV DNA. Put plainly: In vitro anti-HBV activity: replication of HBV DNA in 2.2.15 cells (dot hybridization). Conditions: for IC50: Hepatitis B virus, read-out: DNA replication IC50; for DNA replication SI: selectivity index. It is filed as cell-based, Hepatitis B virus (HBV). In short, it runs like this:
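HBV-producing 2.2.15 cells exposed to 3-fold serial dilutions of compound (DMSO stocks diluted in medium); cells and supernatants harvested on day 8. Intracellular HBV DNA replication quantified by dot hybridization with α-32P-dCTP probe; HBsAg/HBeAg in supernatant by RIA.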

In a further series the test system is HBsAg. Put plainly: In vitro anti-HBV activity: HBsAg production in HBV-infected 2.2.15 cells (RIA). The series is classed as cell-based, Hepatitis B virus (HBV). Particulars: for IC50: Hepatitis B virus, read-out: HBsAg IC50; for HBsAg SI: selectivity index. The method, then: All compounds were evaluated for their anti-HBV activities, namely the ability to inhibit the replication of HBV DNA and the production of HBsAg and HBeAg in HBV-infected 2.2.15 cells.
The samples were dissolved in DMSO for appropriate concentrations, and then each was diluted 3-fold with culture medium. The 2.2.15 cells were planted into 96-well culture plates. […] The culture supernatants and 2.2.15 cells were collected respectively on the 8th plant day. The secretion concentrations of HBsAg and HBeAg in the culture supernatants were measured by RIA on SPRIA Kit for Detection of HBsAg and HBeAg (Beijing North Institute of Biological Technology), and the replication of HBV DNA was measured by dot hybridization with a^32PdCTP (FuRui Biological Technology Ltd., China).

The next series has as its target T1, HIV-1 protease (Human immunodeficiency virus type 1 group M subtype B, UniProt P04585).
T1 construct: The genetically engineered target enzyme (HIV-1 protease, preserved at −85° C.)
In words: Anti-HIV-1 protease activity (fluorescence labeled substrate). The series is classed as biochemical. Put shortly:
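Recombinant HIV-1 protease incubated under optimal conditions with a fluorescence-labelled substrate and test samples dissolved in DMSO or water and diluted 5-fold. Inhibition read as product fluorescence on a fluorometer; indinavir as reference.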

pIC50: −log10 of the molar value. ≈ marks a conversion by molar mass, not a printed value.

As for `CCOC(=O)c1c(CSc2ccccc2)n(C)c2cc(Br)c(O)c(CN(C)C)c12.Cl.O` [Abidol, Ethyl 6-bromo-4-[(dimethylamino)methyl]-5-hydroxy-1-methyl-2-(phenyl-thiomethyl)-1H-indole-3-carboxylate hydrochloride monohydrate, reference compound], in series [1], the IC50 was 23.2 µg/mL and the SI came to 2.69. In series [2], this molecule showed a TC50 of 62.5 µg/mL.

With `CCOC(=O)c1c(CSc2nc3ccccc3[nH]2)n(C)c2cc(Br)c(O)c(CN(C)C)c12` [Example 3, Ethyl 6-bromo-4-[(dimethylamino)methyl]-5-hydroxy-1-methyl-2-[(benzo[d]imidazol-2-yl)thiomethyl]-1H-indole-3-carboxylate], in series [1], the IC50 is 7.81 µg/mL (≈ 15.1 µM) and the SI is recorded as 1.59. This molecule also had a TC50 in series [2] of 12.4 µg/mL (≈ 24 µM).

With `CCOC(=O)c1c(CSCc2ccc(F)cc2)n(C)c2cc(Br)c(O)c(CN(C)C)c12.Cl` [Example 5, Ethyl 6-bromo-4-[(dimethylamino)methyl]-5-hydroxy-1-methyl-2-[(4-fluorobenzyl)thiomethyl]-1H-indole-3-carboxylate hydrochloride], in series [1], the half-maximal inhibitory concentration (IC50) is 7.81 µg/mL and the SI came to 6.34. This molecule also yielded a TC50 in series [2] of 49.51 µg/mL.

Take `CCOC(=O)c1c(CSCc2ccccc2F)n(C2CC2)c2cc(Br)c(O)c(CN3CCCC3)c12.Cl` [Example 14, Ethyl 6-bromo-1-cyclopropyl-5-hydroxy-4-(1-pyrrolidinylmethyl)-2-[(2-fluorobenzyl)thiomethyl]-1H-indole-3-carboxylate hydrochloride]: in series [1], the 50% inhibitory concentration (IC50) came to 0.92 µg/mL and the SI was 2.7. The molecule further had a TC50 in series [2] of 2.48 µg/mL.

For `CCOC(=O)c1c(CSc2nc3ccc(OC)cc3[nH]2)n(C)c2cc(Br)c(O)c(CN3CCOCC3)c12` [Example 25, Ethyl 6-bromo-5-hydroxy-1-methyl-4-(morpholinomethyl)-2-[(5-methoxybenzo[d]imidazol-2-yl)thiomethyl]-1H-indole-3-carboxylate], in series [1], the half-inhibitory concentration (IC50) stood at 22.1 µg/mL (≈ 37.5 µM) and the SI stood at 5.66. This molecule displayed a TC50 in series [2] of 125.0 µg/mL (≈ 212 µM).

For the molecule `CCOC(=O)c1c(CS(=O)(=O)c2ccc(C(F)(F)F)cc2)n(C)c2cc(Br)c(O)c(CN3CCCC3)c12` [Example 82, Ethyl 6-bromo-5-hydroxy-1-methyl-4-(1-pyrrolidinylmethyl)-2-[(4-trifluoromethylphenyl)sulfonylmethyl]-1H-indole-3-carboxylate], in the series with 2.2.15 cells, the TC50 was 14.25 µg/mL (≈ 23.6 µM). In the series with HBV DNA, the IC50 is 6.1 µg/mL (≈ 10.1 µM) and the “DNA replication SI” value amounted to 2.34. In addition, in the series with HBsAg, the IC50 was 7.83 µg/mL (≈ 13 µM) and the “HBsAg SI” value is recorded as 1.82.

Regarding `CCOC(=O)c1c(CS(=O)(=O)c2cccc(C(F)(F)F)c2)n(C2CC2)c2cc(Br)c(O)c(CN3CCCC3)c12` [Example 83, Ethyl 6-bromo-1-cyclopropyl-5-hydroxy-4-(1-pyrrolidinylmethyl)-2-[(3-trifluoromethylphenyl)sulfonylmethyl]-1H-indole-3-carboxylate], in the series on 2.2.15 cells, the TC50 came out at 35.61 µg/mL (≈ 56.6 µM). Moreover, in the series with HBV DNA, the concentration for half-maximal inhibition (IC50) is 6.38 µg/mL (≈ 10.1 µM) and the “DNA replication SI” value was determined as 5.58. Also, in the series on HBsAg, the half-inhibitory concentration (IC50) stood at 18.3 µg/mL (≈ 29.1 µM) and the “HBsAg SI” value was 1.94.

As to `CCOC(=O)c1c(CSCc2ccccc2)n(C2CC2)c2cc(Br)c(O)c(Cn3ccnc3)c12` [Example 91, Ethyl 6-bromo-1-cyclopropyl-5-hydroxy-4-[(1-imidazolyl)methyl]-2-(benzylthiomethyl)-1H-indole-3-carboxylate], in series [1], the 50% inhibitory concentration (IC50) was determined as 15.6 µg/mL (≈ 28.9 µM) and the SI was determined as 18.77. The TC50 in series [2] was determined as 293.37 µg/mL (≈ 543 µM).

For the molecule `CCOC(=O)c1c(CSCc2ccc(F)cc2)n(C)c2cc(Br)c(O)c(Cn3ccnc3)c12` [Example 92, Ethyl 6-bromo-5-hydroxy-4-[(1-imidazolyl)methyl]-1-methyl-2-[(4-fluorobenzyl)thiomethyl]-1H-indole-3-carboxylate], in series [1], the 50% inhibitory concentration (IC50) turned out to be 7.81 µg/mL (≈ 14.7 µM) and the SI amounted to 2.35. The same molecule had a TC50 in series [2] of 18.34 µg/mL (≈ 34.4 µM).

For the molecule `CCOC(=O)c1c(CSCc2ccc(F)cc2)n(C)c2cc(Br)c(O)c(Cn3ccnc3C)c12` [Example 100, Ethyl 6-bromo-5-hydroxy-1-methyl-4-[(2-methyl-1-imidazolyl)methyl]-2-[(4-fluorobenzyl)thiomethyl]-1H-indole-3-carboxylate], in series [1], the concentration for half-maximal inhibition (IC50) turned out to be 22.1 µg/mL (≈ 40.4 µM) and the SI came out at 2.24. For the same molecule, the TC50 in series [2] came to 49.61 µg/mL (≈ 90.8 µM).

For `CCOC(=O)c1c(CSCc2ccccc2)n(C)c2cc(Br)c(O)c(CNC(=N)N)c12` [Example 104, Ethyl 6-bromo-4-(guanidinylmethyl)-5-hydroxy-1-methyl-2-(benzylthiomethyl)-1H-indole-3-carboxylate], in series [1], the IC50 amounted to 13.3 µg/mL (≈ 26.4 µM) and the SI turned out to be 11.16. Moreover, the TC50 in series [2] stood at 148.65 µg/mL (≈ 294 µM).

In turn, `CCOC(=O)c1c(C[S+]([O-])c2ccc(F)cc2)n(C)c2cc(Br)c(O)c(Cn3ccnc3)c12` (stereo not drawn) [Example 122, Ethyl 6-bromo-5-hydroxy-4-[(1-imidazolyl)methyl]-1-methyl-2-[(4-fluorophenyl)sulfinylmethyl]-1H-indole-3-carboxylate] returned a TC50 in the series on 2.2.15 cells of 48.1 µg/mL (≈ 90 µM). In the series with HBV DNA, the half-inhibitory concentration (IC50) turned out to be 13.6 µg/mL (≈ 25.5 µM) and the “DNA replication SI” value was 3.54. Further, in the series with HBsAg, the IC50 turned out to be 11.4 µg/mL (≈ 21.3 µM) and the “HBsAg SI” value was determined as 4.23.

In the case of `CCOC(=O)c1c(C[S+]([O-])c2ccc(F)cc2)n(C)c2cc(Br)c(O)c(CNC(=N)N)c12` (stereo not drawn) [Example 153, Ethyl 6-bromo-4-(guanidinylmethyl)-5-hydroxy-1-methyl-2-[(4-fluorophenyl)sulfinylmethyl]-1H-indole-3-carboxylate], the pIC50 against HIV-1 protease is 3.87. Moreover, on HIV-1 protease (sample concentration 0.5 ug/ml), the “inhibition ratio at 0.5 ug/ml” value is listed as 7.2. In addition, on HIV-1 protease (sample concentration 2.0 ug/ml), the “inhibition ratio at 2.0 ug/ml” value is 14.7. In addition, the “inhibition ratio at 10 ug/ml” value on HIV-1 protease (sample concentration 10 ug/ml) came out at 11.2. The “inhibition ratio at 50 ug/ml” value at HIV-1 protease (sample concentration 50 ug/ml) stood at 24.1. On HIV-1 protease (sample concentration 250 ug/ml), the “inhibition ratio at 250 ug/ml” value came out at 75.3. Besides, the TC50 in the series on 2.2.15 cells came out at 125 µg/mL (≈ 238 µM). In the series with HBV DNA, the IC50 turned out to be 29.3 µg/mL (≈ 55.8 µM) and the “DNA replication SI” value is listed as 4.27. In addition, in the series on HBsAg, the concentration for half-maximal inhibition (IC50) was found to be 62.2 µg/mL (≈ 118 µM) and the “HBsAg SI” value is on record as 2.01.

In the series with 2.2.15 cells, `CCOC(=O)c1c(CSc2cccc(F)c2)n(C)c2cc(Br)c(O)c(Cn3ccnc3)c12` [Example 175, Ethyl 6-bromo-5-hydroxy-4-[(1-imidazolyl)methyl]-1-methyl-2-[(3-fluorophenyl)thiomethyl]-1H-indole-3-carboxylate] showed a TC50 of 35.61 µg/mL (≈ 68.7 µM). In addition, in the series with HBV DNA, the IC50 was determined as 4.65 µg/mL (≈ 8.97 µM) and the “DNA replication SI” value was 7.66. In the series on HBsAg, the concentration for half-maximal inhibition (IC50) is 2.45 µg/mL (≈ 4.73 µM) and the “HBsAg SI” value is reported as 14.53.

Turning to `CCOC(=O)c1c(CSCc2ccccc2)n(C)c2cc(Br)c(O)c(Cn3ccnc3)c12` [Example 176, Ethyl 6-bromo-5-hydroxy-4-[(1-imidazolyl)methyl]-1-methyl-2-(benzylthiomethyl)-1H-indole-3-carboxylate], in series [1], the IC50 is 15.6 µg/mL (≈ 30.4 µM) and the SI is 8.0. For the same molecule, the TC50 in series [2] came to 125 µg/mL (≈ 243 µM).

Molecule `CCOC(=O)c1c(C[S+]([O-])c2ccc(C(F)(F)F)cc2)n(C)c2cc(Br)c(O)c(Cn3ccnc3)c12` (stereo not drawn) [Example 177, Ethyl 6-bromo-5-hydroxy-4-[(1-imidazolyl)methyl]-1-methyl-2-[(4-trifluoromethylphenyl)sulfinylmethyl]-1H-indole-3-carboxylate] came in with a TC50 with 2.2.15 cells of 106.83 µg/mL (≈ 183 µM). Moreover, in the series on HBV DNA, the concentration for half-maximal inhibition (IC50) worked out at 15.9 µg/mL (≈ 27.2 µM) and the “DNA replication SI” value was 6.72. Besides, in the series with HBsAg, the IC50 turned out to be 31.5 µg/mL (≈ 53.8 µM) and the “HBsAg SI” value came to 3.39.

As for `CCOC(=O)c1c(CS(=O)(=O)Cc2ccccc2)n(C2CC2)c2cc(Br)c(O)c(Cn3ccnc3C)c12` [Example 178, Ethyl 6-bromo-1-cyclopropyl-5-hydroxy-4-[(2-methyl-1-imidazolyl)methyl]-2-(benzylsulfonylmethyl)-1H-indole-3-carboxylate], in series [1], the IC50 is 7.81 µg/mL (≈ 13.3 µM) and the SI came to 10.08. In series [2], this molecule registered a TC50 of 78.75 µg/mL (≈ 134 µM).

In the case of `CCOC(=O)c1c(CSCc2ccccc2F)n(C2CC2)c2cc(Br)c(O)c(Cn3cncn3)c12` [Example 186, Ethyl 6-bromo-1-cyclopropyl-5-hydroxy-4-[(1H-1,2,4-triazol-1-yl)methyl]-2-[(2-fluorobenzyl)thiomethyl]-1H-indole-3-carboxylate], in series [1], the half-maximal inhibitory concentration (IC50) is 9.17 µg/mL (≈ 16.4 µM) and the SI was 6.82. This molecule came in with a TC50 in series [2] of 62.5 µg/mL (≈ 112 µM).

These data come from patent publication US7960427B2, “5-hydroxyindole-3-carboxylate derivatives and uses thereof” (priority 2004, dated 2011).
